Source: ChEMBL document CHEMBL1201862, “PubChem BioAssay data set” (2004)
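Each compound was tested at five concentrations against cells in 96-well plates for 48 hours. At the GI50, growth is halved.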 Activity calls are given as the source filed them. Cut-off read from the data, not from the text of the source: active = GI50 up to about 1.1 µM and inactive = higher.

Legend:
Experiment in all cases: NCI tumour cell line growth inhibition, 48 h
NCI-H226 = test system: NCI-H226
NCI/ADR-RES = test system: NCI/ADR-RES
K562 = test system: K562
KM12 = test system: KM12
A549 = test system: A549
SNB-19 = test system: SNB-19
Malme-3M = test system: Malme-3M
HOP-18 = test system: HOP-18
MCF7 = test system: MCF7
HCT-15 = test system: HCT-15
M19-MEL = test system: M19-MEL
SF-268 = test system: SF-268
HOP-62 = test system: HOP-62
CCRF-CEM = test system: CCRF-CEM
SK-MEL-2 = test system: SK-MEL-2
KM-20L2 = test system: KM-20L2
SK-MEL-28 = test system: SK-MEL-28
MOLT-4 = test system: MOLT-4
SNB-78 = test system: SNB-78
RXF 393 = test system: RXF 393
SNB-75 = test system: SNB-75
HCC 2998 = test system: HCC 2998
RPMI-8226 = test system: RPMI-8226
NCI-H522 = test system: NCI-H522
HOP-92 = test system: HOP-92
DLD-1 = test system: DLD-1
CAKI-1 = test system: CAKI-1
OVCAR-4 = test system: OVCAR-4
DMS-114 = test system: DMS-114
NCI-H460 = test system: NCI-H460
EKVX = test system: EKVX
LOX IMVI = test system: LOX IMVI
DMS-273 = test system: DMS-273
SF-539 = test system: SF-539
SW-620 = test system: SW-620
SK-OV-3 = test system: SK-OV-3
UACC-62 = test system: UACC-62
U-251 = test system: U-251
A498 = test system: A498
HT-29 = test system: HT-29
HL-60 = test system: HL-60
UACC-257 = test system: UACC-257
OVCAR-3 = test system: OVCAR-3
SF-295 = test system: SF-295
OVCAR-5 = test system: OVCAR-5
UO-31 = test system: UO-31
SN12C = test system: SN12C
NCI-H23 = test system: NCI-H23
XF498 = test system: XF498
IGROV-1 = test system: IGROV-1
SK-MEL-5 = test system: SK-MEL-5
HCT-116 = test system: HCT-116
COLO 205 = test system: COLO 205
OVCAR-8 = test system: OVCAR-8
ACHN = test system: ACHN
TK-10 = test system: TK-10
786-0 = test system: 786-0
Hs-578T = test system: Hs-578T
MDA-MB-231 = test system: MDA-MB-231
MDA-N = test system: MDA-N
PC-3 = test system: PC-3
BT-549 = test system: BT-549
DU-145 = test system: DU-145
T47D = test system: T47D
MDA-MB-435 = test system: MDA-MB-435
M14 = test system: M14
SR = test system: SR

O=C(NC(Cc1ccc(Br)cc1)C(=O)O)c1ccc(I)cc1 (stereo not given)
GI50 (NCI-H226): > 100 µM (inactive)
GI50 (NCI/ADR-RES): > 100 µM (inactive)
GI50 (K562): > 100000 nM (inactive)
GI50 (KM12): > 100000 nM (inactive)
GI50 (A549): > 100000 nM (inactive)
GI50 (SNB-19): > 81300 nM (inactive)
GI50 (Malme-3M): 83.4 µM (inactive)
GI50 (HOP-18): > 100 µM (inactive)
GI50 (MCF7): > 100 µM (inactive)
GI50 (HCT-15): > 100000 nM
GI50 (M19-MEL): > 100000 nM (inactive)
GI50 (SF-268): > 100000 nM (inactive)
GI50 (HOP-62): > 100 µM (inactive)
GI50 (CCRF-CEM): > 72.9 µM (inactive)
GI50 (SK-MEL-2): > 100 µM (inactive)
GI50 (KM-20L2): > 100 µM (inactive)
GI50 (SK-MEL-28): > 100 µM (inactive)
GI50 (MOLT-4): > 69.5 µM (inactive)
GI50 (SNB-78): > 100 µM (inactive)
GI50 (RXF 393): > 100 µM (inactive)
GI50 (SNB-75): > 95.7 µM (inactive)
GI50 (HCC 2998): > 47400 nM (inactive)
GI50 (RPMI-8226): > 68.9 µM (inactive)
GI50 (NCI-H522): > 82.6 µM (inactive)
GI50 (HOP-92): 65.3 µM (inactive)
GI50 (DLD-1): > 100 µM (inactive)
GI50 (CAKI-1): > 100 µM (inactive)
GI50 (OVCAR-4): 75.3 µM (inactive)
GI50 (DMS-114): 70500 nM (inactive)
GI50 (NCI-H460): > 100000 nM (inactive)
GI50 (EKVX): > 52 µM (inactive)
GI50 (LOX IMVI): > 100 µM (inactive)
GI50 (DMS-273): > 100 µM (inactive)
GI50 (SF-539): > 100000 nM (inactive)
GI50 (SW-620): > 100 µM (inactive)
GI50 (SK-OV-3): > 100 µM (inactive)
GI50 (UACC-62): 71.9 µM (inactive)
GI50 (U-251): > 95300 nM (inactive)
GI50 (A498): > 100 µM (inactive)
GI50 (HT-29): > 100 µM (inactive)
GI50 (HL-60): > 100000 nM (inactive)
GI50 (UACC-257): > 100 µM (inactive)
GI50 (OVCAR-3): > 69.7 µM (inactive)
GI50 (SF-295): > 100000 nM (inactive)
GI50 (OVCAR-5): > 100 µM (inactive)
GI50 (UO-31): > 100 µM (inactive)
GI50 (SN12C): > 100 µM (inactive)
GI50 (NCI-H23): > 100 µM (inactive)
GI50 (XF498): > 100000 nM (inactive)
GI50 (IGROV-1): > 100 µM (inactive)
GI50 (SK-MEL-5): > 100 µM (inactive)
GI50 (HCT-116): > 100 µM (inactive)
GI50 (COLO 205): > 100 µM (inactive)
GI50 (OVCAR-8): > 100 µM (inactive)

C/C=C/C=C\C(=O)C1c2cccc(O)c2C(=O)c2c(O)cc(C)cc21 (stereo not given)
GI50 (NCI-H226): 1.11 µM (active)
GI50 (ACHN): 1.35 µM (inactive)
GI50 (K562): 356 nM (active)
GI50 (KM12): 425 nM (active)
GI50 (A549): 719 nM (active)
GI50 (SNB-19): 442 nM (active)
GI50 (Malme-3M): 1.68 µM (inactive)
GI50 (HOP-18): 1.88 µM (inactive)
GI50 (HCT-15): 1760 nM
GI50 (M19-MEL): 828 nM (active)
GI50 (SF-268): 705 nM (active)
GI50 (HOP-62): 2.04 µM (inactive)
GI50 (CCRF-CEM): 1.27 µM (inactive)
GI50 (SK-MEL-2): 1.01 µM (active)
GI50 (KM-20L2): 1.98 µM (inactive)
GI50 (TK-10): 1.7 µM (inactive)
GI50 (SK-MEL-28): 1.69 µM (inactive)
GI50 (MOLT-4): 2.92 µM (inactive)
GI50 (SNB-78): 1.65 µM (inactive)
GI50 (RXF 393): 1.37 µM (inactive)
GI50 (SNB-75): 1.29 µM (inactive)
GI50 (HCC 2998): 306 nM (active)
GI50 (RPMI-8226): 2.14 µM (inactive)
GI50 (NCI-H522): 1.66 µM (inactive)
GI50 (HOP-92): 1.39 µM (inactive)
GI50 (DLD-1): 1.9 µM (inactive)
GI50 (CAKI-1): 2.08 µM (inactive)
GI50 (OVCAR-4): 1.7 µM (inactive)
GI50 (DMS-114): 383 nM (active)
GI50 (NCI-H460): 406 nM (active)
GI50 (EKVX): 3.38 µM (inactive)
GI50 (LOX IMVI): 1.79 µM (inactive)
GI50 (DMS-273): 1.65 µM (inactive)
GI50 (SF-539): 432 nM (active)
GI50 (SW-620): 1.19 µM (inactive)
GI50 (SK-OV-3): 1.43 µM (inactive)
GI50 (U-251): 446 nM (active)
GI50 (A498): 2.74 µM (inactive)
GI50 (HT-29): 2.06 µM (inactive)
GI50 (HL-60): 294 nM (active)
GI50 (UACC-257): 1.83 µM (inactive)
GI50 (OVCAR-3): 1.02 µM (active)
GI50 (SF-295): 957 nM (active)
GI50 (OVCAR-5): 1.82 µM (inactive)
GI50 (UO-31): 1.71 µM (inactive)
GI50 (SN12C): 2.33 µM (inactive)
GI50 (786-0): 2.03 µM (inactive)
GI50 (NCI-H23): 1.76 µM (inactive)
GI50 (XF498): 232 nM (active)
GI50 (IGROV-1): 1.57 µM (inactive)
GI50 (SK-MEL-5): 1.39 µM (inactive)
GI50 (HCT-116): 1.52 µM (inactive)
GI50 (COLO 205): 1.64 µM (inactive)
GI50 (OVCAR-8): 1.81 µM (inactive)

C=C1C(O)C2(O)OCC34C(CC5C(C)=CC(=O)C(O)C5(C)C23)OC(=O)C(OC(=O)C/C=C(\C)CCCCC)C14 (stereo not given)
GI50 (NCI-H226): 0.0144 µM (active)
GI50 (ACHN): < 0.001 µM (active)
GI50 (Hs-578T): < 1 nM (active)
GI50 (MDA-MB-231): 3.15 nM (active)
GI50 (NCI/ADR-RES): 0.624 µM (active)
GI50 (K562): 12.5 nM (active)
GI50 (MDA-N): < 1 nM (active)
GI50 (KM12): 12.9 nM (active)
GI50 (A549): 17 nM (active)
GI50 (SNB-19): 14.6 nM (active)
GI50 (PC-3): < 1 nM (active)
GI50 (HOP-18): 0.0343 µM (active)
GI50 (MCF7): 0.0125 µM (active)
GI50 (HCT-15): 31.6 nM
GI50 (M19-MEL): 13.6 nM (active)
GI50 (SF-268): 15.2 nM (active)
GI50 (HOP-62): 0.0148 µM (active)
GI50 (CCRF-CEM): 0.0125 µM (active)
GI50 (SK-MEL-2): 0.0251 µM (active)
GI50 (KM-20L2): 0.0149 µM (active)
GI50 (TK-10): 0.00177 µM (active)
GI50 (SK-MEL-28): 0.0128 µM (active)
GI50 (MOLT-4): 0.0125 µM (active)
GI50 (SNB-78): 0.0145 µM (active)
GI50 (RXF 393): 0.0152 µM (active)
GI50 (SNB-75): 0.0153 µM (active)
GI50 (BT-549): < 1 nM (active)
GI50 (HCC 2998): 13.6 nM (active)
GI50 (DU-145): < 1 nM (active)
GI50 (RPMI-8226): 0.014 µM (active)
GI50 (NCI-H522): 0.0125 µM (active)
GI50 (HOP-92): 0.0147 µM (active)
GI50 (DLD-1): 0.0146 µM (active)
GI50 (CAKI-1): 0.0427 µM (active)
GI50 (OVCAR-4): 0.0125 µM (active)
GI50 (DMS-114): 12.5 nM (active)
GI50 (NCI-H460): 12.5 nM (active)
GI50 (T47D): < 1 nM (active)
GI50 (EKVX): 0.0198 µM (active)
GI50 (SF-539): 15.3 nM (active)
GI50 (SW-620): 0.0153 µM (active)
GI50 (SK-OV-3): 0.0133 µM (active)
GI50 (UACC-62): 0.0147 µM (active)
GI50 (U-251): 12.5 nM (active)
GI50 (A498): 0.0148 µM (active)
GI50 (MDA-MB-435): < 1 nM (active)
GI50 (HT-29): 0.0141 µM (active)
GI50 (HL-60): 12.5 nM (active)
GI50 (UACC-257): 0.0125 µM (active)
GI50 (SF-295): 12.5 nM (active)
GI50 (OVCAR-5): 0.0231 µM (active)
GI50 (UO-31): 0.0787 µM (active)
GI50 (M14): < 1 nM (active)
GI50 (SN12C): 0.0199 µM (active)
GI50 (786-0): 0.00103 µM (active)
GI50 (NCI-H23): 0.0147 µM (active)
GI50 (SR): < 10 nM (active)
GI50 (XF498): 15.3 nM (active)
GI50 (IGROV-1): 0.0133 µM (active)
GI50 (HCT-116): 0.0125 µM (active)
GI50 (COLO 205): 0.0154 µM (active)
GI50 (OVCAR-8): 0.0125 µM (active)
